Laboratory results: publication PMC6423188, “HYNIC and DOMA conjugated radiolabeled bombesin analogs as receptor-targeted probes for scintigraphic detection of breast tumor” (EJNMMI Research, 2019)
Where a SMILES comes first, the peptide text is derived from it.

What was measured:
GRPR = molecular target: T1, GRPR (Homo sapiens, UniProt P30550); test: In vitro receptor binding assay, competition with 99mTc-BNS; conditions: unlabeled analogs, MDA-MB-231 cells/membranes, radioligand 99mTc-BNS, 1 h, 37 °C
T1 construct: endogenous in cells; host or cells: MDA-MB-231 human breast cancer cells (from NCCS, Pune)
Method: One day prior to the assay, cells at the confluence were placed in 12-well plates. […] Inhibitory assays were done on GRPR-expressing MDA-MB-231 human breast cancer cells using the standard procedure with modifications. […] After 1-h incubation, cells were washed twice with cold PBS. Receptor bound radioactivity was recovered by solubilizing the cells with 400 μL 1 N NaOH at 37 °C. Binding activities were evaluated in the gamma counter. IC50 (the best-fit 50% inhibitory concentration) values were determined using nonlinear regression.
It may be mentioned that non-radioactive Re complex can be used in place of its unlabeled ligand to determine the binding affinity after complexation reaction. This is being proposed to use the non-radioactive Re complex in place of its unlabeled ligand to determine the binding affinity after complexation in future studies.

MDA-MB-231 cells = test: Western blot analysis; type: cell-based, human; conditions: 24 h, BN3, BN4 7.5 and 5 pM, BNS 7.5 pM
Description: After washing in ice-cold PBS, proteins were extracted from cells with lysis buffer containing 100 mmol/L Tris-HCl, pH 8.0, 150 mmol/L NaCl, 1% sodium dodecyl sulfate, 10% glycerol, 1% Triton X, 5 mmol/L ethylenediaminetetraacetic acid, 1 mmol/L phenyl methyl sulfonyl fluoride, 10 mmol/L sodium fluoride, 1 mmol/L sodium orthovanadate, 1 mmol/L-glycerophosphate, and protease inhibitor cocktail tablets (Roche, Switzerland). Total proteins from cell were also extracted by using standard procedure. Protein concentrations were determined by Bradford reagent (BioRad, USA). Extracted proteins were separated by sodium dodecyl sulphate polyacrylamide gel electrophoresis and transferred to polyvinylidene fluoride (PVDF) membranes. Membranes blocking were done by 5% nonfat milk in Tris-buffered saline containing 0.1% polysorbate-20 and incubated with primary antibodies GRPR (Abcam, USA), VEGF, PCNA, Phospho-p38, and HIF-1α (Santa Cruz Biotechnology) for overnight at 4 °C. β-actin antibodies (Millipore) were used to confirm equal protein loading. Detection of primary antibodies was done by alkaline phosphatase conjugated secondary antibodies (1:5000 dilutions) and the detection was done by colorimetry using NBT-BCIP as substrate (Sigma-Aldrich). Detection of GRPR primary antibody was done by horseradish peroxidase conjugated secondary antibodies. The level of β-actin was used as a loading control and was not altered under any of the condition used.

MDA-MB-231 tumor = test: Angiogenic and proliferative markers in tumor (IHC); type: in vivo, mouse; conditions: tumor-bearing mice treated i.v. every day for 2 weeks
Method: Tumor-bearing mice were intravenously treated with BN4 peptide at every day for 2 weeks as BN4 has shown the highest affinity and stability to GRP with compare to other analogs. Mice were sacrificed and tumor tissue sections were used for immunohistochemical (IHC) analyses. IHC was performed by the aforementioned methods with the primary antibodies such as anti-CD31 and anti-Ki67 (Abcam, Cambridge, Massachusetts, USA) to determine the expression of angiogenic and proliferative markers in the tumor.

T1 sequence (P30550 whole entry): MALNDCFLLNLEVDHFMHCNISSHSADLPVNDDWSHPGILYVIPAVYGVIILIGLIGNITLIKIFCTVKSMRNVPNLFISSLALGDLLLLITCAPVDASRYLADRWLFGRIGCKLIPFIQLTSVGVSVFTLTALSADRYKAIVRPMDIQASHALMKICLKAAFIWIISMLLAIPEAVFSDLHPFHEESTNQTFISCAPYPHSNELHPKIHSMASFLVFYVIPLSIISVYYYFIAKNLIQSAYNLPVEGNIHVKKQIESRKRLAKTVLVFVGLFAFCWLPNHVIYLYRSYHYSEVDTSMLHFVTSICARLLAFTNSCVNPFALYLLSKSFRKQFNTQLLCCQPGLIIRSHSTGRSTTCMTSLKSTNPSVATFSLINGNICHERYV

IC50 (GRPR): 3.15 nM
Structure (SMILES): CCCC[C@H](NC(=O)[C@@H](Cc1ccc(O)cc1)NC(=O)[C@H](Cc1c[nH]cn1)NC(=O)[C@@H]1CCCN1C(=O)[C@@H](NC(=O)[C@H](C)NC(=O)[C@H](Cc1c[nH]c2ccccc12)NC(=O)[C@H](CCC(N)=O)NC(=O)CCCNC(=O)CN1CCNCCNCCNCC1)C(C)C)C(N)=O [BN4, DOMA-GABA-[Pro^5-D-Tyr^13Nle^14]-BN(7-14)-NH2] (HELM PEPTIDE1{[O=C(CN1CCNCCNCCNCC1)[*:2]].[O=C(CCCN[*:1])[*:2]].Q.W.A.V.P.H.[dY].[Nle].[am]}$$$$V2.0)
level of GRPR (Western blot) (MDA-MB-231 cells): significantly increased level of GRPR | expression of CD31 and Ki67 in tumor sections (IHC) (MDA-MB-231 tumor): enhanced expression of CD31, Ki67
